# Source: patent US20220361544A1, “Compositions Containing Brazzein” (The Coca-Cola Company, priority 2019, published 2022)
# Like-named read-outs stand apart in the source and are kept apart here.
# Experiments:
# [1] = Sensory evaluation of 472 ppm RebM80 + Brazzein in citric base; assay type: in vivo, human; conditions: Brazzein 1-15 ppm in 472 ppm of RebM80
# Source text: Example 6: Brazzein+Reb M (Taste Modifying Composition)
# [2] = Sensory evaluation of 400 ppm A95 + Brazzein in citric base; assay type: in vivo, human; conditions: Brazzein 5 ppm to 20 ppm in 400 ppm of A95
# Source text: Example 7: Brazzein+Reb A95 (Taste Modifying Composition)
# “A95” refers to a steviol glycoside blend comprising primarily reb D and reb M. Methods of obtaining A95 are provided in WO 2017/059414, incorporated herein by reference.
# [3] = cited from earlier work
# [4] = cited from earlier work; remark: listed apart in the source
# [5] = cited from earlier work; remark: listed apart in the source
substance,measurement,setting,value
"Brazzein: small, sweet-tasting protein from Pentadiplandra brazzeana Baillon; 53-amino acid minor form, SEQ ID NO: 1 (DKCKKVYENYPVSKCQLANQCNYDCKLDKHARSGECFYDEKRNLQCICDYCEY; listed as Pentadiplandra brazzeana)",Effect of Brazzein on taste property of 472 ppm RebM80,[1],"improves the taste property in 472 ppm of RebM80 such as, sour, less sweet, cover the bitterness and lingering. More mouthfeel, richness and fullbody."
same,Effect of Brazzein on taste of 400 ppm A95,[2],"can improve the mouthfeel, block bitterness and lingering in 400 ppm of A95"
same,Sweet taste after incubation,[3]; 80° C. for 4.5 h in the pH range of 2.5-8,remains
same,Sweet taste after incubation,[3]; 98° C. for 2 h,remains
same,Solubility,[4],> 50 mg/mL
same,Water solubility,[4],> 50 mg/mL
same,Taste similarity to sucrose,[5]; compared with thaumatin,more similar to sucrose than that of thaumatin
same,Sweetness of minor form relative to major form,[5]; minor form (des-pGlu1-brazzein) vs major form (pGlu-brazzein),nearly twice the sweetness of the major form
